pIC50: −log10 of the molar value. Peptide text beside a SMILES is read from it. * marks the point of attachment. Cbz = O=C(OCc1ccccc1)*; CH2F = FC*

Assay [1] concerns TNF-induced relocalisation of EYFP-TRADD (TNFR1-containing complex I) in HeLa cells. Put plainly: TNF-mediated relocation of fluorescently tagged TRADD in Clone #49-E2 HeLa cells, 384-well (Example 2). The format is cell-based, human. As to conditions: for effect of downstream signalling inhibitors on detectable EYFP-TRADD clusters: increasing concentrations, in the presence of TNF, FIGS. 14-16; for selectivity: relocalisation of the reporter molecule EYFP-TRADD effected by other compounds or molecules: added instead of TNF, FIG. 12. Here is the method:
The following experimental procedure to detect the reporter molecule in the presence of absence of a “test” compound (or molecule, as described below) was conducted.
On day 1, 10^3 cells per well were plated in thin glass bottom 384 wells plate in 50 μl of culture media (DMEM glutamax, 10% FBS, peni-strep, geneticin, hygromycin). The cells were incubated overnight at 37° C. On day 2, media was aspirated, and 35 μl of warm DMEM, 2, 5% FBS, HEPES 10 mM added. Then, 15 μl of 4× the test compound diluted in DMEM, 2, 5% FBS, HEPES 10 mM was added to cells using a Biomek laboratory automation workstation (Beckman-Coulter). This was incubated at room temperature for 1.5 min. […] The cells were washed three times with PBS 1× using an Embla 384 Cell Washer (Molecular Devices). Cells were fixed by adding PBS 1×, 5% PFA+Hoescht 0.2 μg/ml using a Multidrop 384 dispensor (Thermo Scientific; 30 μl/well) followed by an incubation for 20 min at room temperature in the dark. After a further three washes of the cells with PBS 1× using the Embla 384 Cell Washer, 60 μl per well of PBS 1×, 1% peni-strep was added. The plate was covered with a transparent sealing film. Readings were then taken on the Scientific Cellomics ArrayScan HCS Reader automated microscope system as used in Example 1.

Assay [2] concerns TNF-mediated relocation of TRADD-EYFP in HeLa cells. Put plainly: TNF-mediated relocation of TRADD-EYFP / EYFP-TRADD in stably transfected HeLa cells (Example 1, clone HeLa/TRADD-EYFP#49). The format is cell-based, human. The following applies: for blocking of TNF-induced relocalisation of fluorescently tagged TRADD to punctuate structures: in the presence of TNF, R-7050 100 μM with 1000 ng/ml TNF (FIG. 6), etanercept FIG. 9.
Excerpt: The pTREhyg-EYFP-TRADD and pTREhyg-TRADD-EYFP expression vectors were stably transfected using PolyFect® Transfection Reagent (Qiagen), according to the manufacturer's protocol, into HeLa Tet-On Cell Line cells (Clontech Laboratories, Inc.). This cell line is a neomycin resistant human cervical epithelioid carcinoma cell line transformed with a modified version of pTet-On which has a nuclear localization signal fused to the N-terminus (pUHD172-1neo).
Intracellular location of EYFP-TRADD and TRADD-EYFP was determined using fluorescence microscopy. Using a fluorescence microscope, cells are illuminated with light of a specific wavelength which is absorbed by the EYFP, causing it to emit longer wavelengths of light (of a different colour than the absorbed light). The illumination light is separated from the much weaker emitted fluorescence through the use of an emission filter, and an image of the cell created.
We then used an automated microscope system (a Thermo Scientific Cellomics ArrayScan HCS Reader) as an automated fluorescence microscopic imaging system designed for high content screening and high content analysis. The instrument features include optics by Carl Zeiss, broad white-light source, 12-bit cooled CCD camera, and controller software. The instrument is designed to work with image analysis modules (Thermo Scientific BioApplications) that automatically convert images into numeric data that capture changes in cell size, shape, intensity, and other properties. The system allows: high content screening, analysis of cells containing fluorescent reporter molecules in an array of locations, treating the cells in the array of locations with one or more test compounds, imaging numerous cells in each location with fluorescence optics, and converting the optical information into digital data. This digital data was then used to determine the positioning, distribution, environment or activity of the fluorescently labelled reporter molecules (EYFP-TRADD or TRADD-EYFP) in the transfected HeLa cells and the distribution of the cells. This information was analysed in terms of a positive, negative or null effect of each test compound being examined. This system allowed differences between untreated and treated cells to be measured, for example by counting the number of fluorescent spots (rather than diffuse fluorescence) in cells.
Using GraphPad Prism (v. 4.01, San Diego, Calif., USA), a dose-response curve was generated (FIG. 7). Percentage responders (y-axis values in FIGS. 7 and 8) were determined as the number of cells with more than five spots, which is an alternative but qualitatively similar measurement to spot count per cell (see below).

Assay [3] addresses T1, TL1A-activated DR3 receptor (Homo sapiens, UniProt Q93038, P167L).
T1 construct: (N); expressed in transfected cells; host or cells: HeLa Tet-On cells stably expressing TRADD-EYFP, transfected with pTRE2-DR3 (HeLa TRADD DR3)
T1 sequence (Q93038 with tags, fused parts or gaps P167L): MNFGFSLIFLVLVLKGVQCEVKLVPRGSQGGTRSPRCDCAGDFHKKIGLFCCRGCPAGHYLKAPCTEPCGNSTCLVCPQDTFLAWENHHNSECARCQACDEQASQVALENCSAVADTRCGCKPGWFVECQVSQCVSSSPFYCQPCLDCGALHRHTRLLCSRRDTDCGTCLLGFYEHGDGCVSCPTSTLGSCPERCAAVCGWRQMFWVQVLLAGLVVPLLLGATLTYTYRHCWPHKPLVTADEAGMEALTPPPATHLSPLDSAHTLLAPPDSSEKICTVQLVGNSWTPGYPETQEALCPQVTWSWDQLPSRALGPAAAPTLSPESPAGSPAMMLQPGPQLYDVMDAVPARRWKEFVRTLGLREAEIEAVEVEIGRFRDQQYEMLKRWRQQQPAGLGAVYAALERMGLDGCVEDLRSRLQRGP
Put plainly: TL1A-induced TRADD-EYFP relocation in HeLa TRADD DR3 recombinant cells (Example 3). As to conditions: FIG. 17. Type of assay: cell-based. From the text: (§1) In a further example of the present invention, a method involving the TL1A-activated DR3 receptor was developed. The TRADD-EYFP HeLa clones comprising the TRADD-EYFP reporter molecule transfected into HeLa cells as described in Example 1 was employed. The DR3 receptor (cDNA sequence shown in SEQ ID NO: 19 and encoded protein shown in SEQ ID NO: 20) which had been cloned in the vector pCR3.1 (Invitrogen) was transferred into the vector pTre2 (Clontech) using the Gateway® cloning technique with the primers Attb1 Forward primer (SEQ ID NO: 21) and Attb2 Reverse primer (SEQ ID NO: 22), yielding a pTRE2-DR3 expression vector (SEQ ID NO: 23). This expression vector was then transfected into the TRADD-EYFP HeLa clones to produce a double transformants designated HeLa TRADD DR3.
(§2) Monitoring and quantification of the TRADD-EYFP reporter molecule was conducted as described in Examples 1 and 2 above. […] The data of FIG. 17 are depicted graphically in FIG. 18.

Assay [4] concerns TNF-induced TRADD relocalisation in HeLa TRADD DR3 cells. Put plainly: TNF-induced TRADD-EYFP relocation in HeLa TRADD DR3 recombinant cells (Example 3). The format is cell-based, human. As to conditions: in the presence of 100 ng/ml TNF; FIG. 19.
Excerpt: as §1, §2

As for `O=C(c1ccc(Nc2nccc(-c3cc4ccccc4s3)n2)cc1)N1CCC(N2CCCC2)CC1` [IKK16], the “effect of downstream signalling inhibitors on detectable EYFP-TRADD clusters” value in assay [1] was “no change in detectable EYFP-TRADD clusters”. Regarding `FC(F)(F)c1nnc2c(Sc3ccccc3)nc3ccc(Cl)cc3n12` [R-7050], the “blocking of TNF-induced relocalisation of fluorescently tagged TRADD to punctuate structures” value in assay [2] is reported as “blocked”. The pIC50 (in general, −log10 of the IC50, conventionally taken in molar units) in assay [2] (on 1000 ng/ml TNF, FIG. 8) was 5.68. On to `CC[C@H](C)[C@H](NC(=O)OCc1ccccc1)C(=O)N[C@@H](CCC(=O)OC)C(=O)N[C@H](C(=O)N[C@@H](CC(=O)OC)C(=O)CF)[C@@H](C)O` [Z-IETD-FMK] (Cbz-IE(OMe)TD(OMe)-CH2F), for which the “effect of downstream signalling inhibitors on detectable EYFP-TRADD clusters” value in assay [1] is on record as “no dissociation of clusters”. Still for that read-out and setting: the entry for `C=C1[C@@H](C)[C@H]2[C@H](Cc3ccccc3)NC(=O)[C@]23[C@H](OC(C)=O)/C=C/[C@@](C)(O)C(=O)[C@@H](C)C/C=C/[C@H]3[C@@H]1O` [cytochalasin D] is “a reduction in detectable EYFP-TRADD clusters”. For “IL1β: Recombinant Human IL1β from Peprotech, Cat N° 200-01B”, the “selectivity: relocalisation of the reporter molecule EYFP-TRADD effected by other compounds or molecules” value (“selectivity: relocalisation” below) in assay [1] is recorded as “not effected”. Consider “Polyinosinic-polycytidylic acid potassium salt [Poly I:C]”, for which, in assay [1], the “selectivity: relocalisation” value is “not effected”. Regarding “TL1A: Recombinant Human TL1A/TNFSF15 from R&D Systems, Cat N° 1319-TL”, in assay [3] (HeLa TRADD DR3 cells), the “calculated EC50 of TL1A (TRADD-EYFP relocalisation to spots)” value was 0.0043 µg/mL. For the same compound, the “selectivity: relocalisation” value in assay [1] was “not effected”. Turning to “TRAIL: recombinant human TRAIL from Millipore, Cat N° GF092”, the “selectivity: relocalisation” value in assay [1] is “not effected”. Regarding etanercept, in assay [3] (in the presence of 300 ng/ml TL1A), the “dose-dependent inhibition of TL1A-induced relocalisation” value is recorded as “not”. This compound gave a pIC50 in assay [2] (TNF dose=300 ng/ml, FIG. 9) of 5.56. In assay [2], the “blocking of TNF-induced relocalisation of fluorescently tagged TRADD to punctuate structures” value is on record as “block”. The “blocking of TNF-induced relocalisation of EYFP-TRADD” value in assay [1] (FIG. 13) is recorded as “blocks”. Besides, in assay [4], the “IC50 on TNF-induced relocalisation” value stood at 0.0538 µg/mL and the “dose-dependent inhibition of TNF-induced relocalisation” value is “dose-dependently inhibited”.
